Laboratory results taken from PMC9652372, “Glycolytic flux control by drugging phosphoglycolate phosphatase” (Nature Communications, 2022).
Converted amounts (≈) assume the structure as drawn. “And” between values parts separate entries of the source, which are not always exact repeats. Equal values may be shown once.

Columns and labels:
murine PGP [1] = target: T1, murine PGP (Mus musculus, UniProt Q8CHP8); experiment: SAR: CP1, CP2 and analogs on PGP phosphatase activity (PG); format: biochemical; design: His6 (N, cleaved yes); made in house; host or cells: Escherichia coli BL21 (DE3), pETM11, co-expressed with groES-groEL-tig; settings: for inhibition of mPGP activity at 40 µM CP compared to DMSO control (%): single experiments Exp #1-3
T1 sequence (Q8CHP8 1-321): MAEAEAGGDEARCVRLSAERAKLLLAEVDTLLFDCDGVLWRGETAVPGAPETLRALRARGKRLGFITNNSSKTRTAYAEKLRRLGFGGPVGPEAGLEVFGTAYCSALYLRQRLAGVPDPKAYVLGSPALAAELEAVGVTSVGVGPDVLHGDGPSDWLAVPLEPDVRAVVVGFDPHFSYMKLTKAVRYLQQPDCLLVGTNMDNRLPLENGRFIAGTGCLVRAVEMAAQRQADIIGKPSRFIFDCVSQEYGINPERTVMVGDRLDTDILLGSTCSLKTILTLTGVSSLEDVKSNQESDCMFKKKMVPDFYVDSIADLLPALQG

[2] = Compound solubility in 100% DMSO
murine PGP [3] = target: T1, murine PGP

inhibition of mPGP activity at 40 µM CP compared to DMSO control (%) (murine PGP [1])	mPGP activity in presence of CP relative to DMSO controls, mPGP on PG (norm.) (murine PGP [1]; CP log[M] -4.69897)	mPGP activity in presence of CP relative to DMSO controls, mPGP on PG (norm.) (murine PGP [1]; CP log[M] -5)	mPGP activity in presence of CP relative to DMSO controls, mPGP on PG (norm.) (murine PGP [1]; CP log[M] -5.30103)	mPGP activity in presence of CP relative to DMSO controls, mPGP on PG (norm.) (murine PGP [1]; CP log[M] -5.60206)	mPGP activity in presence of CP relative to DMSO controls, mPGP on PG (norm.) (murine PGP [1]; CP log[M] -5.90309)	solubility in 100% DMSO [2]	mPGP activity in presence of CP relative to DMSO controls, mPGP on PG (norm.) (murine PGP [1]; CP log[M] -4.39794)	mPGP activity in presence of CP relative to DMSO controls, mPGP on PG (norm.) (murine PGP [1]; CP log[M] -6.20412)	mPGP activity in presence of CP relative to DMSO controls, mPGP on PG (norm.) (murine PGP [1]; CP log[M] -6.50515)	mPGP activity in presence of CP relative to DMSO controls, mPGP on PG (norm.) (murine PGP [1]; CP log[M] -6.80618)	mPGP activity in presence of CP relative to DMSO controls, mPGP on PG (norm.) (murine PGP [1]; CP log[M] -7.10721)	Compound	also measured
97.486% and 99.4924% and 100.275%	0.04813 and 0.03947 and 0.05013	0.08824 and 0.08421 and 0.08772	0.1631 and 0.1684 and 0.1604	0.2914 and 0.2711 and 0.2932	0.4679 and 0.4553 and 0.4662	10 mM (≈ 5.84 mg/mL)	0.02406 and 0.01842 and 0.02506	0.6203 and 0.5816 and 0.584	0.7781 and 0.7842 and 0.7769	0.8663 and 0.8184 and 0.817	0.9358 and 0.8579 and 0.8521	O=C(O)c1cc(Cc2ccc(NC(=O)c3ccccc3[N+](=O)[O-])c(C(=O)O)c2)ccc1NC(=O)c1ccccc1[N+](=O)[O-] [2B]	mPGP activity in presence of CP relative to DMSO controls, mPGP on PG (norm.) (murine PGP [1]; CP log[M] -7.40824): 0.9332 and 0.9316 and 0.9248; PGP inhibitory potency compared to parental compound (murine PGP [1]; PG dephosphorylation assay): slightly more potent than the parental compound
80.4469% and 79.9492% and 79.3956%	0.388 and 0.3967 and 0.3732	0.5639 and 0.5534 and 0.5023	0.6916 and 0.6556 and 0.5915	0.788 and 0.7767 and 0.6502	0.8578 and 0.8527 and 0.8404	–	0.2193 and 0.2518 and 0.2324	0.853 and 0.8789 and 0.9014	0.9181 and 0.905 and 0.9155	0.9349 and 0.9264 and 0.946	1.002 and 0.9691 and 0.9624	O=C(Cc1cccs1)Nc1ccc(Cc2ccc(NC(=O)Cc3cccs3)c(C(=O)O)c2)cc1C(=O)O [2C]	mPGP activity in presence of CP relative to DMSO controls, mPGP on PG (norm.) (murine PGP [1]; CP log[M] -4.09691): 0.1542 and 0.1663 and 0.1408
93.8547% and 93.1472% and 91.7582%	0.1303 and 0.1085 and 0.126	0.1756 and 0.1746 and 0.1485	0.2578 and 0.2672 and 0.2745	0.4504 and 0.4206 and 0.395	0.5949 and 0.6032 and 0.5826	50 mM (≈ 25.3 mg/mL)	0.09632 and 0.08995 and 0.05602	0.7592 and 0.7328 and 0.6807	0.8952 and 0.8386 and 0.8543	0.932 and 0.8836 and 0.7843	0.9207 and 0.918 and 0.9468	O=C(Nc1ccc(Cc2ccc(NC(=O)c3cccs3)c(C(=O)O)c2)cc1C(=O)O)c1cccs1 [2D]	mPGP activity in presence of CP relative to DMSO controls, mPGP on PG (norm.) (murine PGP [1]; CP log[M] -7.40824): 0.9632 and 0.9206 and 0.9552
43.2961% and 38.3249% and 35.989%	–	–	–	–	–	100 mM (≈ 63.1 mg/mL)	–	–	–	–	–	Cc1nnc(SCC(=O)Nc2ccc(Cc3ccc(NC(=O)CSc4nnc(C)s4)c(C(=O)O)c3)cc2C(=O)O)s1 [2E]	–

Further lines, the compound ahead of its results:

Compound	inhibition of mPGP activity at 40 µM CP compared to DMSO control (%) (murine PGP [1])	mPGP activity in presence of CP relative to DMSO controls, mPGP on PG (norm.) (murine PGP [1]; CP log[M] -4.69897)	mPGP activity in presence of CP relative to DMSO controls, mPGP on PG (norm.) (murine PGP [1]; CP log[M] -5)	mPGP activity in presence of CP relative to DMSO controls, mPGP on PG (norm.) (murine PGP [1]; CP log[M] -5.30103)	mPGP activity in presence of CP relative to DMSO controls, mPGP on PG (norm.) (murine PGP [1]; CP log[M] -5.60206)	mPGP activity in presence of CP relative to DMSO controls, mPGP on PG (norm.) (murine PGP [1]; CP log[M] -5.90309)	solubility in 100% DMSO [2]	mPGP activity in presence of CP relative to DMSO controls, mPGP on PG (norm.) (murine PGP [1]; CP log[M] -4.39794)	mPGP activity in presence of CP relative to DMSO controls, mPGP on PG (norm.) (murine PGP [1]; CP log[M] -6.20412)	mPGP activity in presence of CP relative to DMSO controls, mPGP on PG (norm.) (murine PGP [1]; CP log[M] -6.50515)	mPGP activity in presence of CP relative to DMSO controls, mPGP on PG (norm.) (murine PGP [1]; CP log[M] -6.80618)	mPGP activity in presence of CP relative to DMSO controls, mPGP on PG (norm.) (murine PGP [1]; CP log[M] -7.10721)	also measured
O=C(O)c1ccccc1N1C(=O)c2ccc(Oc3ccc4c(c3)C(=O)N(c3ccccc3C(=O)O)C4=O)cc2C1=O [1B]	29.6196% and 23.1638% and 21.6216%	–	–	–	–	–	–	–	–	–	–	–	–
O=C(O)c1cccc(NC(=O)c2ccc(Oc3ccc(C(=O)Nc4cccc(C(=O)O)c4)cc3)cc2)c1 [1C]	57.0652% and 64.9718% and 66.7954%	0.5416 and 0.5073 and 0.4404	0.7056 and 0.6098 and 0.6376	0.8 and 0.7439 and 0.7317	0.9101 and 0.8268 and 0.7615	0.8683 and 0.8326	–	–	–	–	–	–	mPGP activity in presence of CP relative to DMSO controls, mPGP on PG (norm.) (murine PGP [1]; CP log[M] -4): 0.1618 and 0.1854 and 0.172; mPGP activity in presence of CP relative to DMSO controls, mPGP on PG (norm.) (murine PGP [1]; CP log[M] -4.12494): 0.2268 and 0.2271; mPGP activity in presence of CP relative to DMSO controls, mPGP on PG (norm.) (murine PGP [1]; CP log[M] -4.30103): 0.3124 and 0.2854 and 0.2844; mPGP activity in presence of CP relative to DMSO controls, mPGP on PG (norm.) (murine PGP [1]; CP log[M] -4.60206): 0.427 and 0.4195 and 0.4312; mPGP activity in presence of CP relative to DMSO controls, mPGP on PG (norm.) (murine PGP [1]; CP log[M] -4.82391): 0.6225 and 0.5805 and 0.5711
O=C(O)c1ccccc1NC(=O)c1ccccc1Oc1ccccc1C(=O)Nc1ccccc1C(=O)O [1D]	14.6739% and 27.6836% and 20.8494%	–	–	–	–	–	–	–	–	–	–	–	–
COc1ccc(C(=O)Nc2ccccc2C(=O)O)cc1 [1E]	33.1522% and 38.1356% and 45.1737%	–	–	–	–	–	–	–	–	–	–	–	–
O=C(O)c1cc2ccccc2c(-c2c(O)c(C(=O)O)cc3ccccc23)c1O [GYJACFGQPFXKCA-UHFFFAOYSA-N]	–	–	–	–	–	–	–	–	–	–	–	–	IC50 (murine PGP [3]): > 50 µM
